Earlier results on 4 compounds are cited in patent publication US20070253988A1, “Methods for peeling skin” (L'OREAL, priority 2006, published 2007).

The conditions of this data set: approximately 20° C., concentration of 0.1 M.
As usually defined, the pKa is the pH at which an ionisable group is half protonated. `O=S(=O)(O)CCN(CCO)CCO` [N,N-bis[2-hydroxyethyl]-2-aminoethanesulfonic acid]: the pKa is reported as 7.17.

Regarding `O=S(=O)(O)CCN1CCN(CCO)CC1` [N-2-hydroxyethylpiperazine-N′-2-ethanesulfonic acid], the pKa was 7.55.

As to `NC(=O)CNCCS(=O)(=O)O` [N-(2-acetamido)-2-aminoethanesulfonic acid], the pKa is 6.88.

On to `O=S(=O)(O)CCN1CCN(CCS(=O)(=O)O)CC1` [piperazine-N,N′-bis[2-ethanesulfonic]acid], for which the pKa is 6.82.
